Experimental data from article PMC13040415, “Structure and Mechanism of PhdC, a Prenylated‐Flavin Maturase” (Proteins, 2025).

Assays:
PhdC [1] = biological target: T1, PhdC (Mycolicibacterium fortuitum, UniProt A0A0N9XAG5); assay: isothermal titration calorimetry; type: binding
T1 construct: gene XA26_16660; homodimer, site at dimer interface
T1 sequence (A0A0N9XAG5 2-155): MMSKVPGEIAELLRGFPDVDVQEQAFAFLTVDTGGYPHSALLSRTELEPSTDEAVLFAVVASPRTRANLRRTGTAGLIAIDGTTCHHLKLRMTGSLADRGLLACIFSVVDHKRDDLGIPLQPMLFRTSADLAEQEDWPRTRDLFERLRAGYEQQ

PhdC [2] = biological target: T1, PhdC; assay: differential scanning fluorimetry (SUPR-DSF); Tm of apo to Tm of FMN-bound; type: binding; settings: 100 mM KPi, pH 7.5; ramp 1°C/min

`Cc1cc2nc3c(=O)[nH]c(=O)nc-3n(C[C@H](O)[C@H](O)[C@H](O)COP(=O)(O)O)c2cc1C` [FMN] gave a Kd (PhdC [1]) of 17.8 ± 0.26 µM and a Tm (PhdC [2]) of 63.6 to 66.5 °C.
